The series can be described thus: Solubility of galactitol (no method). Particulars: galactitol tends to crystallize with xylitol crystals; no solvent or temperature printed. Type of series: physicochemical.

For the molecule `OC[C@@H](O)[C@H](O)[C@H](O)[C@@H](O)CO` [galactitol], the solubility result was “very low solubility”.

(Values after patent US4008285A, “Process for making xylitol” (priority 1975, dated 1977).)
